Among the data in patent publication US8901305B2, “Aryl lactam kinase inhibitors” (Bristol-Myers Squibb Company, priority 2012, dated 2014) are IC50 and Response values, retold here.

The target in one experiment is T1, GST-Xa-hAAK1 (Homo sapiens, UniProt Q2M2I8).
T1 construct: made in house
The experiment is described as follows: AAK1 kinase assay. The format is biochemical. The following applies: ATP 22 μM, 3 hours at room temperature. Summed up:
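Bacterially expressed GST-Xa-hAAK1 was combined with substrates and compounds (eleven concentrations) and incubated 3 h at room temperature, then stopped with EDTA. Fluorescent substrate and phosphorylated product were separated electrophoretically (Caliper LabChip), and IC50 values came from non-linear regression.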

Experiment [1] addresses T2, AAK1 (full length human) with AP2M1 in HEK293F cells (Homo sapiens, UniProt Q2M2I8).
T2 construct: expressed in transfected cells; host or cells: HEK293F
Description: HEK281 cell-based assay (phospho-mu2 Western blot in transfected HEK293F cells). The settings on record: 3 hours, inhibition of mu2 phosphorylation. As for the experimental part: HEK293F cells were cultured in media containing DMEM (Gibco, cat. #11965), 10% FBS (SAFC Biosciences, cat. #12103C), 1×GPS (glutamine, penicillin and streptomycin). On day one, cells were plated on a 10 cm dish so that they are ˜80% confluent at time of transfection. Roughly 12 million cells were in a 10 cm dish at time of transfection. On day two, each dish was transfected with 48 ug DNA and 144 ul Lipofectamine 2000 (Invitrogen, cat. #11668-019). The DNA was comprised of a mixture (per 10 cm dish) containing 3 ug AAK1/HA/pIRES (full length human, NCBI accession no. NP_055726.2), 45 μg Flag/AP2MI/pcDNA (full length human), and 1.5 ml OPTI-MEM. The Lipofectamine 2000 is made up of a mixture (per 10 cm dish) containing 144 μl Lipofectamine 2000 and 1.5 ml OPTI-MEM. Each mixture was transferred to individual 15 ml tubes and incubated at RT for 5 minutes, and then the two mixes were combined and incubated at RT for 20 minutes. Growth media was then aspirated from each 10 cm plate and replaced with 10 ml of DMEM+10% FBS (no GPS). Finally, 3 ml DNA/Lipofectamine mix was added to each 10 cm dish and mix gently followed by incubate of plate overnight at 37° C. and 5% CO2.
On day three, compounds were diluted in 100% DMSO at 1000× final concentration, followed by 3-fold serial dilutions for a total of 5 concentrations tested. Four compounds were tested per 10 cm dish. One ul of each compound dilution was then pipetted into a deep-well, 96-well plate, followed by addition of 500 μl DMEM+0.5% FBS into each well for a 2× final concentration of each compound. Cells were resuspended in a 10 cm dish by simple pipetting (HEK293 cells come off the plate that easy at this point) and then transferred to a 50 ml conical tube and pelleted by centrifugation at 1000 rpm for 5 min. Cell pellets were then resuspended in 2.75 ml DMEM+0.5% FBS per 10 cm dish and 100 μl of cell suspension transferred into each well of 96-well TC plate. Finally, 100 μl of 2× compound diluted in DMEM+0.5% FBS was then added into wells containing cell suspension for a 1× final concentration. Plates were then incubated at 37° C. and 5% CO2 for 3 hours followed by transferring of cell suspensions from each well into 12-tube PCR strips. The PCR strips were spun in a tip rack at 1000 rpm for 5 minutes to pellet cells and media was then removed by pipetting without disturbing the cell pellet.
To prepare for Western Blot analysis, cell pellets were resuspend in 40 ul 1×LDS-PAGE sample buffer (Invitrogen, cat. # NP0008)+2× Halt phosphatase and protease inhibitor cocktail (Thermo Scientific, cat. #1861284), followed by sonicating each with microtip sonicator set at 5 for 8-10 seconds. Five ul of 10× NuPage Sample Reducing Agent (with […]) was to each sample followed by heat denaturing at 70 C for 10 min on PCR machine. A total of 10 μl per sample was loaded into each lane of a 4-20% Tris-Glycine Criterion 26-well gel (Biorad, cat. #345-0034) for the phospho-mu2 blot and 10 μl per lane in a 4-12% Bis-Tris (+MES buffer) NuPAGE 26-well gel (Invitrogen, cat. # WG1403BX10) for the mu2 blot. For controls, 2 ng of phospho-mu2 or 20 ng mu2/Flag proteins were loaded in the last well of each gel. After SDS-PAGE, samples on each gel were transferred to PVDF membrane using an iBlot and membranes were blocked for one hour in TBST+5% milk, followed by wash 3× for 5-10 min with TBST. Criterion gels were probed with rabbit anti-phospho-mu2 (1:5000; a rabbit polyclonal antibody produced by New England Peptide and affinity purified at Lexicon) in TBST+5% BSA, whereas, NuPAGE gels were probed with mouse anti-Flag (1:500; Sigma, cat. # F1804) in TBST+5% milk, and these primary antibodies were incubated overnight at 4° C. on a rocker. […]

The subject of experiment [2] is formalin paw test in mice. Description: formalin paw test (pain response). Type of experiment: in vivo. As for the experimental part:
AAK1 homozygous (−/−) and their wild-type (+/+) littermates were tested using the formalin paw test in order to assess their acute and tonic nociceptive responses. For these tests, Automatic Nociception Analyzers (purchased from the Ozaki lab at University of California, San Diego) were used. A metal band was placed around the left hind paw of each mouse 30 minutes prior to testing. After the 30-minute acclimation period, 20 μl of 5% formalin is subcutaneously injected in the dorsal surface of the left hind paw. Mice were individually housed in cylindrical chambers for 45 minutes. Fresh 5% formalin solution was prepared by diluting formaldehyde (Formalde-fresh 20%, Fisher Scientific, Fair Lawn, N.J.) with distilled water. Investigatory compounds were administered 30 minutes prior to formalin injection.
A computer recorded flinches per minute, total flinches for phase I (acute phase=first 8 minutes), and total flinches for phase II (tonic phase=time between minutes 20-40) through an electromagnetic field. See Yaksh T L, Ozaki G, McCumber D, Rathbun M, Svensson C, Malkmus S, Yaksh M C. An automated flinch detecting system for use in the formalin nociceptive bioassay. J Appl Physiol., 2001; 90:2386-402.
The same test was used to confirm that the administration of an AAK1 inhibitor can also affect pain response.
A compound of the disclosure was tested in this assay at different doses. Gabapentin and pregabalin were used as positive controls. Results are shown below in Table 2, wherein the effect of gabapentin at 200 mg/kg is considered a 100% response, the % response for the other compounds is relative to the 200 mg/kg dose of gabapentin, “sc” means subcutaneous administration; “po” means oral administration.

The mark [3] stands for this setting: 50 mg/kg sc, relative to gabapentin 200 mg/kg = 100%.

Molecules are shown by their SMILES.

T2 sequence (Q2M2I8 whole entry): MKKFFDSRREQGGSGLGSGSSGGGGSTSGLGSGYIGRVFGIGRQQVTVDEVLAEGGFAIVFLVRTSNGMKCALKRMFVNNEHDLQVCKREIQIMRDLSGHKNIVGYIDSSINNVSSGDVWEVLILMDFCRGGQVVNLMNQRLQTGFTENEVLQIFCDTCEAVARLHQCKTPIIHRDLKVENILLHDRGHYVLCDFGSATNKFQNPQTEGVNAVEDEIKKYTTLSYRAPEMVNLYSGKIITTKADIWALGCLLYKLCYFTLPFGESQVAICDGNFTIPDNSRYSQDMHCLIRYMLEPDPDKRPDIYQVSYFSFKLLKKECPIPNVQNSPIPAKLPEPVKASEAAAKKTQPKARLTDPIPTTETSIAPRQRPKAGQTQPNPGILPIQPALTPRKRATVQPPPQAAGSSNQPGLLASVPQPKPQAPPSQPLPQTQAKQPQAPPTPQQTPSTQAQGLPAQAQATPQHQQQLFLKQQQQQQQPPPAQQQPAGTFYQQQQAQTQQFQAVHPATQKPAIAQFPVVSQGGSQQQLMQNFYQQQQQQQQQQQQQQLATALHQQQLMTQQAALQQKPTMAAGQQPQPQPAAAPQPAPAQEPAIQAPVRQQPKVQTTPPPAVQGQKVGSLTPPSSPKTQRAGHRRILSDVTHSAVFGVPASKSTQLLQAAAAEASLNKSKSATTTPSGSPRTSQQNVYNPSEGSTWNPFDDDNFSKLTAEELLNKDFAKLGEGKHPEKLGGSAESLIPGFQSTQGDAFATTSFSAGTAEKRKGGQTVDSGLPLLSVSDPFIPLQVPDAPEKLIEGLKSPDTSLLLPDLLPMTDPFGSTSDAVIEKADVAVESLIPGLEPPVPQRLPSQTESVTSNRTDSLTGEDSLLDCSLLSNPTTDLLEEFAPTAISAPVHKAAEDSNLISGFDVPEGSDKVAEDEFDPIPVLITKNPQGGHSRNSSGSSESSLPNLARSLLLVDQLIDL
T1 sequence (Q2M2I8 whole entry): as above

For `CC(C)C[C@H](N)COc1cc2c(cc1-c1cnco1)c1ccncc1c(=O)n2C` [Example 48, (S)-8-(2-amino-4-methylpentyloxy)-6-methyl-9-(oxazol-5-yl)benzo[c][2,7]naphthyridin-5(6H)-one], the IC50 is 1 to 10 nM on GST-Xa-hAAK1 (given as IC50 range) and 1.8 nM in experiment [1].
Take `CC(C)C[C@H](N)COc1cc2c(cc1F)c1ccnc(N)c1c(=O)n2C` [Example 52, (S)-4-amino-8-(2-amino-4-methylpentyloxy)-9-fluoro-6-methylbenzo[c][2,7]naphthyridin-5(6H)-one]: the values for the IC50 (at GST-Xa-hAAK1 (given as IC50 range); in experiment [1]) were 1 to 10 nM and 2.4 nM, respectively.
On to `Cn1c(=O)c2cnccc2c2cc(C#N)c(OCC(N)CCC(F)(F)F)cc21` (centres unmarked) [Example 56, 8-((2-amino-5,5,5-trifluoropentyl)oxy)-6-methyl-5-oxo-5,6 dihydrobenzo[c][2,7]naphthyridine-9-carbonitrile], for which the IC50 (on GST-Xa-hAAK1 (given as IC50 range); in experiment [1] (given as IC50 range)) was 1 to 10 nM in each case.
For `Cc1nccc2c1c(=O)n(C)c1cc(OC[C@@H](N)CC(C)C)c(Cl)cc21` [Example 62, (S)-8-((2-amino-4-methylpentyl)oxy)-9-chloro-4,6-dimethylbenzo[c][2,7]naphthyridin-5(6H)-one], the IC50 (at GST-Xa-hAAK1 (given as IC50 range); in experiment [1] (given as IC50 range)) was 1 to 10 nM throughout.
Consider `Cc1cc2c3ccnc(C)c3c(=O)n(C)c2cc1OC[C@@H](N)CC(C)C` [Example 63, (S)-8-(2-amino-4-methylpentyloxy)-4,6,9-trimethylbenzo[c][2,7]naphthyridin-5(6H)-one], for which the IC50 (at GST-Xa-hAAK1 (given as IC50 range); in experiment [1] (given as IC50 range)) was 1 to 10 nM throughout.
Take `Cc1nccc2c1c(=O)n(C)c1cc(OC[C@@H](N)CC(C)C)c(C#N)cc21` [Example 64, (S)-8-(2-amino-4-methylpentyloxy)-4,6-dimethyl-5-oxo-5,6-dihydrobenzo[c][2,7]naphthyridine-9-carbonitrile]: the 50% inhibitory concentration (IC50) on GST-Xa-hAAK1 (given as IC50 range) is below 1 nM; in experiment [1], 0.6 nM.
Regarding `Cc1nccc2c1c(=O)n(C)c1cc(OC[C@@H](N)CC(C)C)c(F)cc21` [Example 70, (S)-8-(2-amino-4-methylpentyloxy)-9-fluoro-4,6-dimethylbenzo[c][2,7]naphthyridin-5(6H)-one], the IC50 (at GST-Xa-hAAK1 (given as IC50 range); in experiment [1] (given as IC50 range)) was 1 to 10 nM each time.
Regarding `Cc1nccc2c1c(=O)n(C)c1cc(OC[C@@H](N)CC(C)C)c(-c3cnco3)cc21` [Example 72, (S)-8-(2-amino-4-methylpentyloxy)-4,6-dimethyl-9-(oxazol-5-yl)benzo[c][2,7]naphthyridin-5(6H)-one], the IC50 (on GST-Xa-hAAK1 (given as IC50 range); in experiment [1] (given as IC50 range)) was below 1 nM in each case.
As for `Cc1nccc2c1c(=O)n(C)c1cc(OCC(N)CCC(F)(F)F)c(C#N)cc21` (centres unmarked) [Example 73, 8-(2-amino-5,5,5-trifluoropentyloxy)-4,6-dimethyl-5-oxo-5,6-dihydrobenzo[c][2,7]naphthyridine-9-carbonitrile], the IC50 (on GST-Xa-hAAK1 (given as IC50 range); in experiment [1] (given as IC50 range)) was 1 to 10 nM each time.
Turning to `Cc1nccc2c1c(=O)n(C)c1cc(OC[C@@H](N)CC(C)C)c(C(F)(F)F)cc21` [Example 75, (S)-8-(2-amino-4-methylpentyloxy)-4,6-dimethyl-9-(trifluoromethyl)benzo[c][2,7]naphthyridin-5(6H)-one], the IC50 (at GST-Xa-hAAK1 (given as IC50 range); in experiment [1] (given as IC50 range)) was 1 to 10 nM in each case.
Consider `Cc1nccc2c1c(=O)n(C)c1cc(OC[C@H](N)CC(C)C)c(C#N)cc21` [Example 78, (R)-8-(2-amino-4-methylpentyloxy)-4,6-dimethyl-5-oxo-5,6-dihydrobenzo[c][2,7]naphthyridine-9-carbonitrile], for which the IC50 at GST-Xa-hAAK1 was 0.8 nM; in experiment [1] (given as IC50 range), 1 to 10 nM.
Consider `Cc1nccc2c1c(=O)n(C)c1cc(OC[C@@H](N)CC(C)C)c(-c3cncs3)cc21` [Example 83, (S)-8-(2-amino-4-methylpentyloxy)-4,6-dimethyl-9-(thiazol-5-yl)benzo[c][2,7]naphthyridin-5(6H)-one], for which the IC50 (at GST-Xa-hAAK1 (given as IC50 range); in experiment [1] (given as IC50 range)) was 1 to 10 nM throughout.
Take `CC(C)CC(C)(N)COc1ccc2c3c(F)cncc3c(=O)n(C)c2c1` (centres unmarked) [Example 97, 8-(2-amino-2,4-dimethylpentyloxy)-1-fluoro-6-methylbenzo[c][2,7]naphthyridin-5(6H)-one]: the 50% inhibitory concentration (IC50) on GST-Xa-hAAK1 (given as IC50 range) fell in the range of 1 to 10 nM; in experiment [1] (given as IC50 range) it was 10 to 100 nM.
With `Cc1nccc2c1c(=O)[nH]c1cc(OC[C@@H](N)CC(C)C)c(F)cc12` [Example 101, (S)-8-(2-amino-4-methylpentyloxy)-9-fluoro-4-methylbenzo[c][2,7]naphthyridin-5(6H)-one], the half-maximal inhibitory concentration (IC50) on GST-Xa-hAAK1 (given as IC50 range) is 1 to 10 nM; in experiment [1] it was 5.2 nM.
`Cc1nccc2c1c(=O)[nH]c1c(F)c(OC[C@@H](N)CC(C)C)c(Cl)cc12` [Example 103, (S)-8-(2-amino-4-methylpentyloxy)-9-chloro-7-fluoro-4-methylbenzo[c][2,7]naphthyridin-5(6H)-one]: the figures for the IC50 (at GST-Xa-hAAK1 (given as IC50 range); in experiment [1] (given as IC50 range)) were 1 to 10 nM and 10 to 100 nM, respectively.
Take `Cc1nccc2c1c(=O)n(C)c1cc(OC[C@@H](N)CC=C(F)F)c(C#N)cc21` [Example 106, (S)-8-((2-amino-5,5-difluoropent-4-en-1-yl)oxy)-4,6-dimethyl-5-oxo-5,6-dihydrobenzo[c][2,7]naphthyridine-9-carbonitrile]: the IC50 (on GST-Xa-hAAK1 (given as IC50 range); in experiment [1] (given as IC50 range)) was below 1 nM in each case.
Turning to `NCC1(CC(=O)O)CCCCC1` [Gabapentin, gabapentin], the Response in experiment [2] (setting [3]) is 60%; in experiment [2] (200 mg/kg sc, considered a 100% response) it was 100%.
`CC(C)C[C@H](CN)CC(=O)O` [Pregabalin, pregabalin]: the Response in experiment [2] (setting [3]) turned out to be 90%.
